Source: patent publication US9181176B2, “7-[3,5-dihydroxy-2-(3-hydroxy-5-phenyl-pent-1-enyl)-cyclopentyl]-N-ethyl-hept-5-enamide (bimatoprost) in crystalline form II, methods for preparation, and methods for use thereof” (Allergan, Inc., priority 2009, dated 2015)

How the values were obtained:
Assay type in all cases: physicochemical
[1] = Solid-state polymorphic transformation in laboratory stress study samples (DSC); conditions: 40° C., 70-day time-point
Protocol: Two Bimatoprost lots (X11192 and X10510) were subjected to a variety of experimental stress conditions at 40° C. (see Table 6). The experimental design included ambient air and argon headspaces, exposure to fluorescent light, and different surface-to-volume ratios. The 70-day time-point samples were analyzed by HPLC and DSC.

[2] = Solid-state polymorphic transformation in samples of the formal stability program (DSC, IR); conditions: stored 18 months at 25° C./60% RH
Protocol: The colored particle was separated from the white drug substance, and DSC was performed on both. In order to determine whether bimatoprost spontaneously converts from polymorph I to polymorph II at elevated temperatures (i.e. higher than the prescribed storage temperature), a number of other lots in the formal stability program were also analyzed by DSC. All the formal stability samples tested consisted of polymorph II. Since the control (frozen) samples from the same lots were previously analyzed by DSC with the results showing that none of them contained polymorph II, there is a clear indication that a polymorphic transformation had occurred under the stability conditions employed.

[3] = Determination of the aqueous solubility of polymorph II; conditions: 0.4% suspension rotated continuously over a weekend; supernatants assayed by HPLC
Protocol: The aqueous solubility of polymorph II was determined by preparing in duplicate a 0.4% suspension of a formal stability sample (lot X10510 stored at 25° C./60% RH for 23 months, confirmed as polymorph II). Temperature Program 1 (hold for 1.0 minute at 30° C. and then heat from 30° C. to 85° C. at 2.0° C. per minute), was used to test the 23-month stability sample by DSC to reconfirm the presence of only polymorph II (which was, indeed, the case). The suspension was allowed to rotate continuously over a weekend. The supernatants were assayed by HPLC using X11192 Secondary Reference Standard to determine the drug contents. […] Since the active pharmaceutical ingredient will be used in a formulation at a concentration that is only one-tenth of the aqueous solubility of the active pharmaceutical ingredient (as either polymorph), there is no effect of crystal habit on product characteristics or manufacturing process.

For `CCNC(=O)CCC/C=C\C[C@@H]1[C@@H](/C=C/[C@@H](O)CCc2ccccc2)[C@H](O)C[C@@H]1O` [X10510, bimatoprost], the “polymorphic form after stress (DSC)” value ([1]; ambient air headspace, regardless of light exposure) was “partial morphological conversion in which both polymorphs I and II were present simultaneously” and the “polymorphic form after storage (DSC and IR)” value [2] was “yielded substantial amounts of polymorph II”.

`CCNC(=O)CCCC=CCC1C(O)CC(O)C1C=CC(O)CCc1ccccc1` (stereo not shown) [polymorph II, 7-[3,5-dihydroxy-2-(3-hydroxy-5-phenyl-pent-1-enyl)-cyclopentyl]-N-ethyl-hept-5-enamide] gave an aqueous solubility [3] of 0.3 % w/w.

For `CCNC(=O)CCC/C=C\C[C@@H]1[C@@H](/C=C/[C@@H](O)CCc2ccccc2)[C@H](O)C[C@@H]1O` [X11192, bimatoprost], the “polymorphic form after stress (DSC)” value ([1]; air or argon headspace, light or dark) was “polymorph I”.
